Experimental data from US4468511A, “C-20- And C-23-Modified macrolide derivatives” (Eli Lilly and Company, priority 1983, dated 1984).
In brackets after ≈: the same amount, converted by molar mass. Where two headings read alike, the source gives them in different places.

Experiments:
Format in all cases: cell-based
[1] = tested on: Haemophilus influenzae C.L.; assay: MIC, standard agar-dilution assay
Procedure: (§1) The MIC's in Table II were determined by standard agar-dilution assays. The MIC's in Table III were obtained using a conventional broth-dilution microtiter test.

[2] = tested on: Haemophilus influenzae 76; assay: MIC, standard agar-dilution assay
Procedure: as §1

[3] = tested on: Staphylococcus aureus X400; assay: MIC, standard agar-dilution assay
Procedure: as §1

[4] = tested on: Staphylococcus epidermidis EPI1; assay: microbe, parasite or virus in culture; conditions: Staphylococcus epidermidis, EPI1
Procedure: as §1

[5] = tested on: Staphylococcus aureus S13E; assay: microbe, parasite or virus in culture
Procedure: as §1

[6] = tested on: Staphylococcus aureus X1.1; assay: MIC, standard agar-dilution assay; conditions: Staphylococcus aureus, X1.1
Procedure: (§2) Certain of the derivatives are active against some gram-negative bacteria, such as Pasteurella species. The MIC's in Table II were determined by standard agar-dilution assays. The MIC's in Table III were obtained using a conventional broth-dilution microtiter test.

[7] = tested on: Klebsiella pneumoniae KAE; assay: MIC, standard agar-dilution assay; conditions: agar-dilution; Klebsiella pneumoniae KAE; read-out: MIC
Procedure: as §2

[8] = tested on: Streptococcus pyogenes 9960; assay: MIC, standard agar-dilution assay
Procedure: as §2

[9] = tested on: Staphylococcus aureus V41; assay: MIC, standard agar-dilution assay; conditions: Staphylococcus aureus, V41
Procedure: as §2

[10] = tested on: Streptococcus pneumoniae Park I; assay: MIC, standard agar-dilution assay; conditions: Streptococcus pneumoniae
Procedure: as §2

[11] = tested on: Klebsiella pneumoniae X26; assay: MIC, standard agar-dilution assay
Procedure: as §2

Escherichia coli EC14 = assay: MIC, standard agar-dilution assay
Procedure: as §2

[12] = tested on: Streptococcus Group D X66; assay: MIC, standard agar-dilution assay
Procedure: as §2

Escherichia coli TEM = assay: MIC, standard agar-dilution assay; conditions: agar-dilution; Escherichia coli TEM; read-out: MIC
Procedure: as §2

[13] = tested on: Streptococcus pyogenes C203; assay: MIC, standard agar-dilution assay
Procedure: as §2

[14] = tested on: Pasteurella hemolytica 41D; assay: MIC, conventional broth-dilution microtiter test
Procedure: as §2

[15] = tested on: Pasteurella multocida 17E; assay: MIC, conventional broth-dilution microtiter test; conditions: broth-dilution microtiter; Pasteurella multocida 17E, Bovine isolate; read-out: MIC
Procedure: as §2

[16] = tested on: Pasteurella hemolytica 22C; assay: MIC, conventional broth-dilution microtiter test
Procedure: as §2

[17] = tested on: Pasteurella multocida 60A; assay: MIC, conventional broth-dilution microtiter test; conditions: broth-dilution microtiter; Pasteurella multocida 60A, Avian isolate; read-out: MIC
Procedure: as §2

[18] = tested on: Pasteurella multocida 40G; assay: MIC, conventional broth-dilution microtiter test; conditions: broth-dilution microtiter; Pasteurella multocida 40G; read-out: MIC
Procedure: as §2

[19] = tested on: Mycoplasma gallisepticum 34159; assay: MIC, conventional broth-dilution microtiter test; conditions: Mycoplasmoides gallisepticum; broth-dilution microtiter; Mycoplasma gallisepticum 34159, Resistant strain; read-out: MIC
Procedure: as §2

[20] = tested on: Pasteurella multocida 68C; assay: MIC, conventional broth-dilution microtiter test; conditions: broth-dilution microtiter; Pasteurella multocida 68C; read-out: MIC
Procedure: as §2

[21] = tested on: Mycoplasma gallisepticum 41313; assay: MIC, conventional broth-dilution microtiter test; conditions: Mycoplasmoides gallisepticum; broth-dilution microtiter; Mycoplasma gallisepticum 41313, Resistant strain; read-out: MIC
Procedure: as §2

Mycoplasma gallisepticum = assay: MIC, conventional broth-dilution microtiter test; conditions: Mycoplasmoides gallisepticum
Procedure: as §2

Streptococcus sp. 80 = assay: MIC, conventional broth-dilution microtiter test; conditions: broth-dilution microtiter; Streptococcus sp. 80; read-out: MIC
Procedure: as §2

Mycoplasma hyorhinis = assay: MIC, conventional broth-dilution microtiter test; conditions: Mycoplasma
Procedure: as §2

Staphylococcus aureus = assay: MIC, conventional broth-dilution microtiter test
Procedure: as §2

[22] = tested on: Pasteurella hemolytica 23C; assay: MIC, conventional broth-dilution microtiter test
Procedure: as §2

[23] = tested on: Pasteurella multocida 22A; assay: MIC, conventional broth-dilution microtiter test; conditions: broth-dilution microtiter; Pasteurella multocida 22A; read-out: MIC
Procedure: as §2

[24] = tested on: Staphylococcus epidermidis EPI2; assay: MIC, standard agar-dilution assay; conditions: Staphylococcus epidermidis, EPI2
Procedure: as §1

[25] = agar-dilution, Haemophilus influenzae C.L., Ampicillin-sensitive strain, read-out: MIC
[26] = agar-dilution, Haemophilus influenzae 76, Ampicillin-resistant strain, read-out: MIC
[27] = agar-dilution, Staphylococcus aureus X400, Methicillin-resistant strain, read-out: MIC
[28] = agar-dilution, Streptococcus 9960, read-out: MIC
[29] = agar-dilution, Klebsiella pneumoniae X26, read-out: MIC
[30] = agar-dilution, Escherichia coli EC14, read-out: MIC
[31] = agar-dilution, Streptococcus Group D X66, read-out: MIC
[32] = agar-dilution, Streptococcus pyogenes C203, read-out: MIC

Compound	MIC [1, 25] [µg/mL]	MIC [2, 26] [µg/mL]	MIC [3, 27] [µg/mL]	MIC [4] [µg/mL]	MIC [5] [µg/mL]	MIC [6] [µg/mL]	MIC [7] [µg/mL]	MIC [8, 28] [µg/mL]	MIC [9] [µg/mL]	MIC [10] [µg/mL]	MIC [11, 29] [µg/mL]	MIC (Escherichia coli EC14; [30]) [µg/mL]	MIC [12, 31] [µg/mL]	MIC (Escherichia coli TEM) [µg/mL]	MIC [13, 32] [µg/mL]	MIC [15] [µg/mL]	MIC [17] [µg/mL]	MIC [18] [µg/mL]	MIC [19] [µg/mL]	MIC [24] [µg/mL]	other results
CCC1OC(=O)CC(O)C(C)C(OC2OC(C)C(O)C(N(C)C)C2O)C(CCN2C(=O)c3ccccc3C2=O)CC(C)C(=O)C=CC(C)=CC1CN1C(=O)c2ccccc2C1=O (stereo not shown) [Compound 31, 20,23-Di-N-Phthalimido-20,23-dideoxy-20-dihydro-OMT]	> 128	> 128	16 (≈ 18.6 µM)	4 (≈ 4.66 µM)	4 (≈ 4.66 µM)	4 (≈ 4.66 µM)	> 128	16 (≈ 18.6 µM)	4 (≈ 4.66 µM)	2 (≈ 2.33 µM)	> 128	> 128	8 (≈ 9.32 µM)	> 128	16 (≈ 18.6 µM)	> 50	> 50	> 50	25 (≈ 29.1 µM)	–	MIC ([14]; broth-dilution microtiter, Pasteurella hemolytica 41D, read-out: MIC): > 50 µg/mL; MIC ([16]; broth-dilution microtiter, Pasteurella hemolytica 22C, read-out: MIC): > 50 µg/mL; MIC [20]: > 50 µg/mL; MIC [21]: 25 µg/mL (≈ 29.1 µM); MIC (Mycoplasma gallisepticum): 12.5 µg/mL (≈ 14.6 µM); MIC (Streptococcus sp. 80): 12.5 µg/mL (≈ 14.6 µM); MIC (Mycoplasma hyorhinis): 50 µg/mL (≈ 58.3 µM); MIC (Staphylococcus aureus): 12.5 µg/mL (≈ 14.6 µM); MIC ([22]; broth-dilution microtiter, Pasteurella hemolytica 23C, read-out: MIC): > 50 µg/mL; MIC [23]: > 50 µg/mL
CCC1CC(C)C(=O)C=CC(C)=CC(COC(C)=O)C(CC)OC(=O)CC(O)C(C)C1OC1OC(C)C(OC(C)=O)C(N(C)C)C1OC(C)=O (stereo not shown) [Compound 40, 2',4',23-Tri-O-acetyl-20-deoxy-20-dihydro-OMT]	–	–	16 (≈ 22.5 µM)	4 (≈ 5.63 µM)	4 (≈ 5.63 µM)	4 (≈ 5.63 µM)	> 128	8 (≈ 11.3 µM)	4 (≈ 5.63 µM)	4 (≈ 5.63 µM)	16 (≈ 22.5 µM)	> 128	8 (≈ 11.3 µM)	> 128	16 (≈ 22.5 µM)	25 (≈ 35.2 µM)	12.5 (≈ 17.6 µM)	25 (≈ 35.2 µM)	> 50	4 (≈ 5.63 µM)	MIC ([14]; Pasteurella, 41D): 50 µg/mL (≈ 70.4 µM); MIC ([16]; Pasteurella, 22C): 50 µg/mL (≈ 70.4 µM); MIC [20]: 12.5 µg/mL (≈ 17.6 µM); MIC [21]: > 50 µg/mL; MIC (Mycoplasma gallisepticum): 6.25 µg/mL (≈ 8.8 µM); MIC (Streptococcus sp. 80): 12.5 µg/mL (≈ 17.6 µM); MIC (Mycoplasma hyorhinis): 50 µg/mL (≈ 70.4 µM); MIC (Staphylococcus aureus): 6.25 µg/mL (≈ 8.8 µM); MIC ([22]; Pasteurella, 23C): 50 µg/mL (≈ 70.4 µM); MIC [23]: 25 µg/mL (≈ 35.2 µM)
CCC1OC(=O)CC(O)C(C)C(OC2OC(C)C(O)C(N(C)C)C2O)C(CCO)CC(C)C(=O)C=CC(C)=CC1COC(=O)CCc1ccccc1 (stereo not shown) [Compound 52, 20-Dihydro-23-O-phenylpropionyl-OMT]	8 (≈ 10.9 µM)	8 (≈ 10.9 µM)	–	0.5 (≈ 0.683 µM)	0.5 (≈ 0.683 µM)	0.5 (≈ 0.683 µM)	> 128	2 (≈ 2.73 µM)	0.5 (≈ 0.683 µM)	0.25 (≈ 0.342 µM)	–	–	–	8 (≈ 10.9 µM)	–	–	–	–	–	0.5 (≈ 0.683 µM)	MIC ([3]; Staphylococcus aureus, X400): 1 µg/mL (≈ 1.37 µM); MIC ([11]; Klebsiella pneumoniae, X26): 4 µg/mL (≈ 5.47 µM); MIC (Escherichia coli EC14; Escherichia coli, EC14): 64 µg/mL (≈ 87.4 µM); MIC [12]: 1 µg/mL (≈ 1.37 µM); MIC ([13]; Streptococcus pyogenes, C203): 0.25 µg/mL (≈ 0.342 µM)
CCC1OC(=O)CC(O)C(C)C(OC2OC(C)C(O)C(N(C)C)C2O)C(CCN(c2ccccc2)c2ccccc2)CC(C)C(=O)C=CC(C)=CC1CO (stereo not shown) [Compound 56, 20-Diphenylamino-20-deoxy-20-dihydro-OMT]	–	–	–	2 (≈ 2.66 µM)	2 (≈ 2.66 µM)	4 (≈ 5.33 µM)	> 128	–	2 (≈ 2.66 µM)	1 (≈ 1.33 µM)	–	> 128	–	> 128	–	–	–	–	–	1 (≈ 1.33 µM)	MIC ([1]; Haemophilus influenzae): 32 µg/mL (≈ 42.6 µM); MIC ([2]; Haemophilus influenzae, 76): 16 µg/mL (≈ 21.3 µM); MIC ([3]; Staphylococcus aureus, X400): 4 µg/mL (≈ 5.33 µM); MIC [8]; 9960: 8 µg/mL (≈ 10.7 µM); MIC [12]: 4 µg/mL (≈ 5.33 µM); MIC ([13]; Streptococcus pyogenes, C203): 2 µg/mL (≈ 2.66 µM)
